Data on 1 molecule can be found in patent US9682928B2 (NeuroPro Therapeutics, Inc., priority 2009, dated 2017).

One test concerns primate. The test is described as follows: Acute primate seizure models. To be noted: in vivo. From the text: FIG. 13 depicts epileptiform spikes and bursts generated using software for the automatic quantification epileptiform activity. FIG. 13A depicts after-discharge activity that was elicited by 4 seconds of electrical stimulation to primate sensory cortex. The software developed by Haglund and Hochman (2007) finds the envelope around a burst of spikes and calculates the duration of the burst, the number of spikes within the burst, and the average spike amplitude of all spikes comprising the burst.
FIG. 13B depicts a typical spike generated by an acute bicuculline focus in primate motor cortex. The bicuculline model generates epileptiform activity that is similar to spontaneous interictal spiking in human subjects. Analysis of the data by the software identifies the time of occurrence of each spike and its peak-to-peak amplitude. This software can automatically process entire data sets consisting of hours of recorded data from multiple traces and generate an output of the data. Statistical analysis of data sets from multiple experiments can then be used to analyze the effects of various treatments (e.g., compounds that suppress epliptiform activity). See Haglund and Hochman (2007) “Imaging of Intrinsic Optical Signals in Primate Cortex during Epileptiform Activity.” Epilepsia 48(Suppl. 4): 65-74; See also Haglund and Hochman (Feb. 23, 2005) J. Neurophysiol. 94: 907-918.

A further test has as its system Sprague-Dawley rats. Briefly: Epileptiform activity induced by i.v. kainic acid in urethane-anesthetized rats. The class given is in vivo, rat. Conditions: intravenous, cumulative dose 40-60 mg/kg. The procedure:
Body temperature was monitored using a rectal temperature probe and maintained at 35-37° C. with a heating pad; heart rate (EKG) was continuously monitored. The jugular vein was cannulated on one side for intravenous drug administration. Rats were placed in a Kopf stereotaxic device (with the top of the skull level), and a bipolar stainless-steel microelectrode insulated to 0.5 mm of the tip was inserted to a depth of 0.5-1.2 mm from the cortical surface to record electroencephalographic (EEG) activity in the fronto-parietal cortex. In some experiments, a 2M NaCl-containing pipette was lowered to a depth of 2.5-3.0 mm to record hippocampal EEG. Data were stored on VHS videotape and analyzed off-line.
Following the surgical preparation and electrode placement, animals were allowed to recover for 30 minutes before the experiments were initiated with an injection of kainic acid (10-12 mg/kg i.v.). […] Experiments were terminated with the intravenous administration of urethane. Animal care was in accordance with NIH guidelines and approved by the University of Washington Animal Care Committee.

The test system of test [1] is rats. Briefly: Fear potentiated startle (FPS) test in rats. Format: in vivo, rat. To be noted: i.v.; furosemide 100 mg/kg, bumetanide 70 mg/kg. As for the experimental part:
FPS is a commonly used assessment of therapeutic value of anxiolytic compounds in the rat. Rats received a 30 min period of habituation to the FPS apparatus. 24-hr later baseline startle amplitudes were collected. The rats will be divided into two matched groups based on baseline startle amplitudes. Following baseline startle amplitude collection 20 light/shock pairings were delivered on 2 sessions over 2 consecutive days (i.e., 10 light/shock pairings per day). On the final day, one group of rats received an injection (i.v.) of a bumetanide analog and the other group received vehicle only. Immediately following injections, startle amplitudes were assessed during startle alone trials and startle plus fear (light followed by startle) trials. Fear potentiated startle (light+startle amplitudes minus startle alone amplitudes) was compared between the treatment groups.
Animals were trained and tested in four identical stabilimeter devices (Med-Associates). Briefly, each rat was placed in a small Plexiglas cylinder. The floor of each stabilimeter consists of four 6-mm-diameter stainless steel bars spaced 18 mm apart through which shock can be delivered. Cylinder movements result in displacement of an accelerometer where the resultant voltage is proportional to the velocity of the cage displacement. Startle amplitude is defined as the maximum accelerometer voltage that occurs during the first 0.25 sec after the startle stimulus is delivered. The analog output of the accelerometer is amplified, digitized on a scale of 0-4096 units and stored on a microcomputer. Each stabilimeter is enclosed in a ventilated, light-, and sound-attenuating box. All sound level measurements were made with a Precision Sound Level Meter. The noise of a ventilating fan attached to a sidewall of each wooden box produces an overall background noise level of 64 dB. The startle stimulus is a 50 ms burst of white noise (5 ms rise-decay time) generated by a white noise generator. The visual conditioned stimulus used was illumination of a light bulb adjacent to the white noise source. The unconditioned stimulus was a 0.6 mA foot shock with duration of 0.5 sec, generated by four constant-current shockers located outside the chamber. The presentation and sequencing of all stimuli were under the control of the microcomputer.
FPS procedures consisted of 5 days of testing; during days 1 and 2 baseline startle responses were collected, days 3 and 4 light/shock pairings were delivered, day 5-testing for fear potentiated startle was conducted.
Matching. On the first two days all rats were placed in the Plexiglas cylinders and 3 min later presented with 30 startle stimuli at a 30 sec interstimulus interval. An intensity of 105 dB was used. […]

A further test concerns human subjects. To be noted: cited from earlier work.
For test [2], the system named is rats. Briefly: Contextual fear conditioning in rats. The class given is in vivo, rat. To be noted: I.V.; furosemide 100 mg/kg, bumetanide 50 mg/kg. The procedure: Contextual fear conditioning involves pairing an aversive event, in this case moderate foot shock, with a distinctive environment. The strength of the fear memory is assessed using freezing, a species-typical defensive reaction in rats, marked by complete immobility, except for breathing. […] However, if they are allowed to explore the distinctive environment sometime before the immediate shock, they show intense anxiety and fear when placed back into the same environment. By procedurally dividing contextual fear conditioning into two phases, the effects of treatments on memory for the context (specifically a hippocampus based process) from learning the association between context and shock or experiencing the aversiveness of the shock (which depend upon emotional response circuitry including amygdala) were separately studied. […] The experiment employed 24 rats. […] Each rat was again placed into the same environment for 8 min during which time freezing was measured, as an index of Pavlovian conditioned fear. […] Measurement of freezing was accomplished through an overhead video camera connected to the microcomputer and was automatically scored using a specialty piece of software, FreezeFrame (OER Inc., Reston, Va.) Total freezing time was analyzed in a one-way analysis of variance (ANOVA) test, with drug dose as the […] factor.

Where two headings read alike, the source gives them in different places.

Description for rat hippocampal slices: Sprague-Dawley rats (males and females; 25-35 days old) were decapitated, the top of the skull was rapidly removed, and the brain chilled with ice-cold oxygenated slicing medium. […] A hemisphere of brain containing hippocampus was blocked and glued (cyanoacrylic adhesive) to the stage of a Vibroslicer (Frederick Haer, Brunsick, Me.). […] In the recording chamber, the slices were perfused with oxygenated recording medium at 34-35° C. […] In most slice experiments, simultaneous extracellular field electrode recordings were obtained from CA1 and CA3 areas. A bipolar tungsten stimulating electrode was placed on the Schaffer collaterals to evoke synaptically-driven field responses in CA1. Stimuli consisted of 100-300 μsec duration pulses at an intensity of four times the population-spike threshold. After discharges were evoked by a 2 second train of such stimuli delivered at 60 Hz. […] The tissue was allowed to recover for 10 minutes between stimulation trials. In each experiment, the initial response of CA1 to synaptic input was first tested by recording the field potential evoked by a single stimulus pulse. […] Rat hippocampal slices, prepared as described above, were perfused with a high-K^+ solution until extended periods of spontaneous interictal-like bursting were recorded simultaneously in CA3 (top traces) and CA1 (lower traces) pyramidal cell regions (FIGS. 18A and 18B). […] Hippocampal slices were prepared from Sprague-Dawley adult rats as described previously. Transverse hippocampal slices 100 μm thick were cut with a vibrating cutter. Slices typically contained the entire hippocampus and subiculum. After cutting, slices were stored in an oxygenated holding chamber at room temperature for at least one hour before recording. […] In some experiments, normal or low-chloride medium was used containing bicuculline.

`NS(=O)(=O)c1cc(C(=O)O)c(NCc2ccco2)cc1Cl` [Furosemide]: the “Minimum concentration required to block both the after discharges and optical changes” value in the test with rat hippocampal slices is on record as 1.25 mM. Moreover, the “Latency to block of bursting” value with rat hippocampal slices (0-Ca2+ experiments, 5 mM furosemide) lay within 15 to 20 min. Besides, the “Stimulation-evoked after discharge activity and optical changes” value in the test on rat hippocampal slices (2.5 mM furosemide, 20 minutes of perfusion) is reported as “blocked”. Moreover, the “Spontaneous bursts in high-K+ (10 mM) medium” value in the test with rat hippocampal slices (2.5 mM furosemide, after 45 minutes of perfusion) is “blocked in a reversible manner”. The “Latency to block of bursting” value in the test on rat hippocampal slices (all other protocols, 2.5 mM furosemide) was 20 to 60 min. The “Anticonvulsant resistant bursts after 3 hours of 0-Mg medium” value in the test on rat hippocampal slices (one hour after the addition of furosemide) is “blocked”. Further, the “Suppression of epileptiform activity” value in the test with primate is “suppresses epileptiform activity”. Besides, in the test on Sprague-Dawley rats, the “Kainic acid-evoked seizure activity (electrical status epilepticus)” value is “blocked seizure activity” and the “Latency to block of seizure activity” value is 30 to 45 min. Also, in the test with rats [1], the “Difference score on the test day vs vehicle alone” value is recorded as “statistically significantly lower difference score” and the “Difference score one week after treatment vs vehicle alone” value is given as “higher difference score”. Also, the “Average reduction in the duration of stimulation-evoked after-discharge activity” value in the test with human subjects (8 patients) is given as 85%. Further, in the test on human subjects (five patients, 20 mg intravenous bolus), the “Average reduction in spiking frequency” value was “approximately 60%”. The “Mean interspike interval following furosemide treatment” value in the test with human subjects (five patients, 9.6 s prior to furosemide) is reported as 21.9 s. Besides, in the test with human subjects (of 8 patients), the “Patients with complete blockade of after-discharge activity” value was 4 patients; the “Patients with reduction by more than 50% of duration and amplitude of after-discharge activity” value is on record as 4 patients. In addition, the “Freezing vs vehicle alone” value in the test with rats [2] is listed as “significantly less freezing”.
